According to PubChem BioAssay AID194 (DTP/NCI, 2004):
“And” between values parts separate entries of the source, which are not always exact repeats. Equal values may be shown once. Results filed as inconclusive are left out. How the source made its calls: active means survival T/C of 150% or more; inactive means T/C below 125% in these data.

Tested on: BDF1 mice, B16 melanoma s.c., survival/tumor T/C
Assay: NCI In Vivo Anticancer Drug Screen. Data for tumor model B16 Melanoma (subcutaneous) in B6D2F1 (BDF1) mice
Method: The antitumor activity of compounds was measured in mice bearing transplantable tumors. Survival or tumor size were measured and the results are expressed as the measurement made in the treated group (T) divided by the measurement made in the vehicle treated control group (C). The tumor model used in this assay is B16 Melanoma (subcutaneous) in B6D2F1 (BDF1) mice

Measured: T/C

NNC(=O)c1ccncc1
inactive: endpoint: median survival time, dose: 64.0 mg/kg/injection, schedule: Q01DX009 (ip), vehicle: saline, higher = longer survival 116 % of control | endpoint: median survival time, dose: 128.0 mg/kg/injection, schedule: Q01DX009 (ip), vehicle: saline, higher = longer survival 88 % of control

N=[N+]=CC(=O)CCC(NC(=O)C(CCC(=O)C=[N+]=N)NC(=O)CCC(N)C(=O)O)C(=O)O (stereo unspecified)
inactive: endpoint: median survival time, dose: 0.1 mg/kg/injection, schedule: Q01DX009 (ip), vehicle: saline, higher = longer survival 95 % of control | endpoint: median survival time, dose: 0.2 mg/kg/injection, schedule: Q01DX009 (ip), vehicle: saline, higher = longer survival 95 % of control | endpoint: median survival time, dose: 0.4 mg/kg/injection, schedule: Q01DX009 (ip), vehicle: saline, higher = longer survival 94 % of control | endpoint: median survival time, dose: 0.8 mg/kg/injection, schedule: Q01DX009 (ip), vehicle: saline, higher = longer survival 91 % of control | endpoint: median survival time, dose: 1.6 mg/kg/injection, schedule: Q01DX009 (ip), vehicle: saline, higher = longer survival 98 % of control | endpoint: median survival time, dose: 12.5 micrograms/kg/injection, schedule: Q01DX009 (ip), vehicle: saline, higher = longer survival 113 % of control | endpoint: median survival time, dose: 25.0 micrograms/kg/injection, schedule: Q01DX009 (ip), vehicle: saline, higher = longer survival 117 % of control | endpoint: median survival time, dose: 50.0 micrograms/kg/injection, schedule: Q01DX009 (ip), vehicle: saline, higher = longer survival 97 % of control | endpoint: median survival time, dose: 100.0 micrograms/kg/injection, schedule: Q01DX009 (ip), vehicle: saline, higher = longer survival 102 % of control
86 % of control: endpoint: median tumor weight (est.), dose: 0.2 mg/kg/injection, schedule: Q01DX009 (ip), vehicle: saline, higher = larger tumour

Cc1c(N)nc(C(CC(N)=O)NCC(N)C(N)=O)nc1C(=O)NC(C(=O)NC(C)C(O)C(C)C(=O)NC(C(=O)NCCc1nc(-c2nc(C(=O)NCCCNC(C)c3ccccc3)cs2)cs1)C(C)O)C(OC1OC(CO)C(O)C(O)C1OC1OC(CO)C(O)C(OC(N)=O)C1O)c1cnc[nH]1 (stereo unspecified)
active: endpoint: median survival time, dose: 1.0 mg/kg/injection, schedule: Q01DX009 (ip), vehicle: water, higher = longer survival 184 % of control
inactive: endpoint: median survival time, dose: 0.13 mg/kg/injection, schedule: Q01DX010 (ip), vehicle: water, higher = longer survival 97 % of control | endpoint: median survival time, dose: 0.25 mg/kg/injection, schedule: Q01DX009 (ip), vehicle: water, higher = longer survival 105 % of control and 120 % of control | endpoint: median survival time, dose: 0.25 mg/kg/injection, schedule: Q01DX010 (ip), vehicle: water, higher = longer survival 97 % of control | endpoint: median survival time, dose: 0.5 mg/kg/injection, schedule: Q01DX009 (ip), vehicle: water, higher = longer survival 100 % of control | endpoint: median survival time, dose: 0.5 mg/kg/injection, schedule: Q01DX010 (ip), vehicle: water, higher = longer survival 124 % of control | endpoint: median survival time, dose: 1.0 mg/kg/injection, schedule: Q01DX010 (ip), vehicle: water, higher = longer survival 112 % of control | endpoint: median survival time, dose: 2.0 mg/kg/injection, schedule: Q01DX010 (ip), vehicle: water, higher = longer survival 112 % of control | endpoint: median survival time, dose: 4.0 mg/kg/injection, schedule: Q01DX010 (ip), vehicle: water, higher = longer survival 98 % of control | endpoint: median survival time, dose: 8.0 mg/kg/injection, schedule: Q01DX009 (ip), vehicle: water, higher = longer survival 106 % of control

CC1(C)N=C(N)N=C(N)N1c1ccc(OCC(=O)N2CCOCC2)c(Cl)c1
inactive: endpoint: median survival time, dose: 50.0 mg/kg/injection, schedule: Q01DX009 (ip), vehicle: saline, higher = longer survival 103 % of control | endpoint: median survival time, dose: 100.0 mg/kg/injection, schedule: Q01DX009 (ip), vehicle: saline, higher = longer survival 114 % of control

COc1cc2c(c(OC)c1OC)-c1ccc(OC)c(=O)cc1[C@@H](NC(C)=O)CC2
inactive: endpoint: median survival time, dose: 63.0 micrograms/kg/injection, schedule: Q01DX009 (ip), vehicle: saline, higher = longer survival 95 % of control | endpoint: median survival time, dose: 125.0 micrograms/kg/injection, schedule: Q01DX009 (ip), vehicle: saline, higher = longer survival 116 % of control | endpoint: median survival time, dose: 250.0 micrograms/kg/injection, schedule: Q01DX009 (ip), vehicle: saline, higher = longer survival 105 % of control | endpoint: median survival time, dose: 500.0 micrograms/kg/injection, schedule: Q01DX009 (ip), vehicle: saline, higher = longer survival 103 % of control

COC12C(COC(N)=O)C3=C(C(=O)C(C)=C(N)C3=O)N1CC1C2N1C (stereo unspecified)
inactive: endpoint: median survival time, dose: 1.0 mg/kg/injection, schedule: Q01DX009 (ip), vehicle: Klucel (hydroxypropylcellulose) (HPC), higher = longer survival 106 % of control | endpoint: median survival time, dose: 2.0 mg/kg/injection, schedule: Q01DX009 (ip), vehicle: Klucel (hydroxypropylcellulose) (HPC), higher = longer survival 91 % of control | endpoint: median survival time, dose: 8.0 mg/kg/injection, schedule: Q01DX009 (ip), vehicle: Klucel (hydroxypropylcellulose) (HPC), higher = longer survival 109 % of control

CCOC(=O)c1csc(-c2csc(CCNC(=O)c3ccccc3)n2)n1
inactive: endpoint: median survival time, dose: 6.25 mg/kg/injection, schedule: Q01DX009 (ip), vehicle: saline with Tween-80, higher = longer survival 95 % of control | endpoint: median survival time, dose: 12.5 mg/kg/injection, schedule: Q01DX009 (ip), vehicle: saline with Tween-80, higher = longer survival 102 % of control | endpoint: median survival time, dose: 25.0 mg/kg/injection, schedule: Q01DX009 (ip), vehicle: saline with Tween-80, higher = longer survival 87 % of control | endpoint: median survival time, dose: 50.0 mg/kg/injection, schedule: Q01DX009 (ip), vehicle: saline with Tween-80, higher = longer survival 91 % of control | endpoint: median survival time, dose: 100.0 mg/kg/injection, schedule: Q01DX009 (ip), vehicle: saline with Tween-80, higher = longer survival 106 % of control
